In the NIST ThermoML archive (doi:10.1021/je201130h):
Numbers after ± are expanded uncertainties.

Conditions: 298.15 K; 101.33 kPa; Liquid; Vibrating tube method

| Compound | mass density [kg/m3] |
| --- | --- |
| Cc1ccc(C)cc1 [1,4-dimethylbenzene] | 856.65 ± 0.23 |
| Cc1ccccc1 [toluene] | 862.34 ± 0.23 |
| Cc1ccccc1C [1,2-dimethylbenzene] | 875.52 ± 0.23 |
| C=CC(=O)O [propenoic acid] | 1059.17 ± 0.32 |
| CC(=O)CC(C)C [4-methylpentan-2-one] | 798.09 ± 0.24 |
